For nine compounds, TGI and GI50 results are on record in PubChem BioAssay (NCI).

Where “and” joins values, the source holds several entries; their conditions need not be identical. Equal values may be shown once.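 Cultured in 96-well plates, cells were exposed to test compound for 48 hours across five concentrations. Abbreviation: GI50, concentration required for 50% inhibition of growth. TGI denotes the concentration required for complete inhibition of growth.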

Assay in all cases: NCI tumour cell line growth inhibition, 48 h
Test [1] concerns M19-MEL melanoma.
In test [2] the test system is SNB-78 CNS.
In test [3] the test system is U251 CNS.
In test [4] the test system is SW-620 colon.
Test [5] relates to HOP-18 NSCLC.
The subject of test [6] is NCI-H226 lung.
In test [7] the test system is RPMI-8226 leukemia.
In test [8] the test system is SF-295 CNS.
Test [9] relates to UACC-257 melanoma.
Test [10] has as its system SK-MEL-5 melanoma.
Test [11] has as its system SN12C renal.

As to `COc1cc2c(cc1O)[C@H](C)C(c1ccc(Cl)cc1)O2` (some centres undefined), the TGI in [1] is 33 µM; in test [2] it was greater than 100 µM; in test [3], 69 µM; in [4], 38 µM; in test [5], greater than 100 µM; in test [6] it was 70 µM. The TGI was 25.6 µM in [7], 82.6 µM in test [8], greater than 100 µM in [9] and 31.8 µM in test [10].
As for `COC(=O)/C(=C/c1ccc(OC)cc1)C(C(=O)O)=C(C)C`, the TGI in test [1], in [2], in [3], in [4], in test [5] and in [6] was greater than 100 µM each time. Also, the TGI in [7], in test [11], in [8], in test [9] and in [10] was greater than 100 µM each time.
`O=C(CCN1CCCCC1CCO)Nc1ccc2c(c1)C(=O)c1ccc(NC(=O)CCN3CCCCC3CCO)cc1C2=O` (centres undefined): the TGI in [1] came to 74.9 µM; in [2], 20.1 µM; in test [3], 14.9 µM; in [4], 9.88 µM; in test [5] it was 8.41 µM; in [6] it was 22.1 µM. The TGI was found to be 31.8 µM in test [7]; 16 µM in test [11]; 33.9 µM in test [8]; 20.6 µM in test [9]; 21.5 µM in test [10].
Consider `C=C1CC2CC[C@@]34C[C@@H]5O[C@@H]6C(O[C@H]7CC[C@H](CC(=O)OC8[C@@H](C)C9OC%10C[C@]%11(C[C@@H]%12O[C@@]%13(C[C@@H](C)[C@@H]%12O%11)C[C@H](C)[C@@H]%11OC%12CC(C(O)CO)OC%12C[C@@H]%11O%13)OC%10CC9O[C@H]8C[C@H]8O[C@@H](CC[C@@H]1O2)C[C@@H](C)C8=C)O[C@@H]7[C@@H]6O3)C5O4` (some centres undefined), for which the GI50 in test [2], in test [3], in test [4], in test [6], in test [7] and in [11] was less than 0.000148 µM throughout. In test [8], the GI50 is less than 0.000148 µM. Besides, the TGI is 1.32 µM in [2]; 0.000191 µM in test [3]; greater than 1.48 µM in test [4]; greater than 1.48 µM in test [5]; greater than 1.48 µM in test [7]; greater than 1.48 µM in [11]. Further, the TGI in [8] is 0.00266 µM and 0.000528 µM; in test [10], 0.00591 µM.
As for `CC(C)(C)C1CC[C@H]2c3c([nH]c4ccc(Br)cc34)[C@H]3C(=O)N(c4ccccc4)C(=O)[C@H]3[C@H]2C1` (some centres undefined), the TGI is 49.8 µM in test [1]; 33.4 µM in test [2]; 36.5 µM in test [3]; greater than 100 µM in test [4]; greater than 100 µM in [5]; 81.8 µM in [6]. Also, the TGI in test [7] is greater than 100 µM; in test [11] it was 57.3 µM; in test [8], 43.1 µM; in test [9] it was greater than 100 µM; in test [10] it was greater than 100 µM.
Consider `O=C(/C=C/c1ccc(OCCCCCCCCCCOc2ccc(/C=C/C(=O)c3ccc(Cl)cc3)cc2)cc1)c1ccc(Cl)cc1`, for which the TGI in test [2], in test [3], in [4], in test [5], in test [6] and in test [7] was greater than 100 µM each time. For the same compound, the TGI in test [11], in [8], in test [9] and in test [10] was greater than 100 µM in each case.
With `On1c(-c2ccccc2)c(-c2c(-c3ccccc3)n(O)c3ccccc23)c2ccccc21`, the TGI in test [1] was greater than 100 µM; in test [2], greater than 100 µM; in test [3], greater than 100 µM; in test [5], 86.3 µM; in [6] it was 64.7 µM; in [11], greater than 100 µM. Besides, the TGI was determined as 61.9 µM in test [8], 88.9 µM in test [9] and 50 µM in test [10].
For `O=C(NCCNCCO)N/N=C/c1cccc([N+](=O)[O-])c1`, the TGI in test [1], in test [2], in test [3], in test [4], in [5] and in test [6] was greater than 100 µM each time. Further, the TGI in test [7], in test [11], in [8], in [9] and in test [10] was greater than 100 µM each time.
On to `O=C(NC1CCCCC1)c1c(O)[nH]c(=S)[nH]c1=O`, for which the TGI in [1], in test [2], in [3], in [4], in test [5] and in test [6] was greater than 100 µM each time. Further, the TGI in [7], in test [11], in test [8], in test [9] and in [10] was greater than 100 µM in each case.
